Reference: PubChem BioAssay AID1918996 (Molecular Pharmacology Branch, DTP, NCI, 2023)

Tested on: 349418-098-R-PDC complex spheroid growth
Test: Anticancer human tumor 349418-098-R-PDC patient-derived lung adenocarcinoma cell line growth inhibition [AhR]
Conditions: for IC50: curve of first compound; for viability, T/C: stronger effect = lower value
Outline: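 Complex tumor spheroids co-cultured with HUVEC and human MSC stroma; AhR antagonists tested in combination with standard-of-care and investigational agents. Top concentration at or near clinical Cmax (else 10 microM), half-log dilutions; growth expressed as percent test/control.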

[1] = second compound 0.1 µM, first compound 0.0316 µM
[2] = second compound 0.1 µM, first compound 0.1 µM
[3] = second compound 0.316 µM, first compound 0.0316 µM
[4] = second compound 0.316 µM, first compound 0.1 µM
[5] = second compound 1 µM, first compound 0.0316 µM
[6] = second compound 1 µM, first compound 0.1 µM
[7] = second compound 3.16 µM, first compound 0.0316 µM
[8] = second compound 3.16 µM, first compound 0.1 µM
[9] = second compound 10 µM, first compound 0.0316 µM
[10] = second compound 10 µM, first compound 0.1 µM
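Further: spheroids exposed to agents for seven days before luminescence viability read.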
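Wherever viability, T/C is given: spheroids also contain HUVEC endothelial cells and human MSC stroma.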

Structure (SMILES): CC1(C)CCC(CN2CCN(c3ccc(C(=O)NS(=O)(=O)c4ccc(NCC5CCOCC5)c([N+](=O)[O-])c4)c(Oc4cnc5[nH]ccc5c4)c3)CC2)=C(c2ccc(Cl)cc2)C1 + Cc1cncc(-c2nc(NCCc3c[nH]c4ccccc34)c3ncn(C(C)C)c3n2)c1
- IC50 (second compound 0.1 µM): > 10000 nM
- IC50 (second compound 0.316 µM): > 10000 nM
- IC50 (second compound 1 µM): > 10000 nM
- IC50 (second compound 3.16 µM): < 31.6 nM
- IC50 (second compound 10 µM): < 31.6 nM
- viability, T/C [1]: 102%
- viability, T/C [2]: 108%
- viability, T/C (second compound 0.1 µM, first compound 0.316 µM): 96.2%
- viability, T/C (second compound 0.1 µM, first compound 1 µM): 92.4%
- viability, T/C (second compound 0.1 µM, first compound 3.16 µM): 90.2%
- viability, T/C (second compound 0.1 µM, first compound 10 µM): 88.4%
- viability, T/C [3]: 99.3%
- viability, T/C [4]: 99.8%
- viability, T/C (second compound 0.316 µM, first compound 0.316 µM): 103%
- viability, T/C (second compound 0.316 µM, first compound 1 µM): 87.7%
- viability, T/C (second compound 0.316 µM, first compound 3.16 µM): 90.8%
- viability, T/C (second compound 0.316 µM, first compound 10 µM): 94.1%
- viability, T/C [5]: 104%
- viability, T/C [6]: 98.5%
- viability, T/C (second compound 1 µM, first compound 0.316 µM): 91.3%
- viability, T/C (second compound 1 µM, first compound 1 µM): 81.4%
- viability, T/C (second compound 1 µM, first compound 3.16 µM): 83%
- viability, T/C (second compound 1 µM, first compound 10 µM): 86.4%
- viability, T/C [7]: 22.3%
- viability, T/C [8]: 24.5%
- viability, T/C (second compound 3.16 µM, first compound 0.316 µM): 23.2%
- viability, T/C (second compound 3.16 µM, first compound 1 µM): 28.6%
- viability, T/C (second compound 3.16 µM, first compound 3.16 µM): 27.3%
- viability, T/C (second compound 3.16 µM, first compound 10 µM): 26.6%
- viability, T/C [9]: 3.27%
- viability, T/C [10]: 2.85%
- viability, T/C (second compound 10 µM, first compound 0.316 µM): 2.92%
- viability, T/C (second compound 10 µM, first compound 1 µM): 3.37%
- viability, T/C (second compound 10 µM, first compound 3.16 µM): 3.16%
- viability, T/C (second compound 10 µM, first compound 10 µM): 3.69%

Structure (SMILES): CCN(c1cc(-c2ccc(CN3CCOCC3)cc2)cc(C(=O)NCc2c(C)cc(C)[nH]c2=O)c1C)C1CCOCC1 + Cc1cncc(-c2nc(NCCc3c[nH]c4ccccc34)c3ncn(C(C)C)c3n2)c1
- IC50 (second compound 0.1 µM): > 3000 nM
- IC50 (second compound 0.316 µM): > 3000 nM
- IC50 (second compound 1 µM): > 3000 nM
- IC50 (second compound 3.16 µM): < 9.49 nM
- IC50 (second compound 10 µM): < 9.49 nM
- viability, T/C (second compound 0.1 µM, first compound 0.00949 µM): 98.9%
- viability, T/C (second compound 0.1 µM, first compound 0.03 µM): 85%
- viability, T/C (second compound 0.1 µM, first compound 0.0949 µM): 98%
- viability, T/C (second compound 0.1 µM, first compound 0.3 µM): 96.5%
- viability, T/C (second compound 0.1 µM, first compound 0.949 µM): 97.7%
- viability, T/C (second compound 0.1 µM, first compound 3 µM): 80.5%
- viability, T/C (second compound 0.316 µM, first compound 0.00949 µM): 105%
- viability, T/C (second compound 0.316 µM, first compound 0.03 µM): 94.2%
- viability, T/C (second compound 0.316 µM, first compound 0.0949 µM): 103%
- viability, T/C (second compound 0.316 µM, first compound 0.3 µM): 103%
- viability, T/C (second compound 0.316 µM, first compound 0.949 µM): 105%
- viability, T/C (second compound 0.316 µM, first compound 3 µM): 76.5%
- viability, T/C (second compound 1 µM, first compound 0.00949 µM): 82.8%
- viability, T/C (second compound 1 µM, first compound 0.03 µM): 94%
- viability, T/C (second compound 1 µM, first compound 0.0949 µM): 81%
- viability, T/C (second compound 1 µM, first compound 0.3 µM): 74.5%
- viability, T/C (second compound 1 µM, first compound 0.949 µM): 77.2%
- viability, T/C (second compound 1 µM, first compound 3 µM): 71.9%
- viability, T/C (second compound 3.16 µM, first compound 0.00949 µM): 19.9%
- viability, T/C (second compound 3.16 µM, first compound 0.03 µM): 17.9%
- viability, T/C (second compound 3.16 µM, first compound 0.0949 µM): 19.6%
- viability, T/C (second compound 3.16 µM, first compound 0.3 µM): 15.1%
- viability, T/C (second compound 3.16 µM, first compound 0.949 µM): 14.2%
- viability, T/C (second compound 3.16 µM, first compound 3 µM): 12.3%
- viability, T/C (second compound 10 µM, first compound 0.00949 µM): 3.07%
- viability, T/C (second compound 10 µM, first compound 0.03 µM): 3.18%
- viability, T/C (second compound 10 µM, first compound 0.0949 µM): 2.66%
- viability, T/C (second compound 10 µM, first compound 0.3 µM): 2.82%
- viability, T/C (second compound 10 µM, first compound 0.949 µM): 2.27%
- viability, T/C (second compound 10 µM, first compound 3 µM): 1.62%

Structure (SMILES): Cn1ncnc1C1c2n[nH]c(=O)c3cc(F)cc(c23)NC1c1ccc(F)cc1 (stereo not given) + Cc1cncc(-c2nc(NCCc3c[nH]c4ccccc34)c3ncn(C(C)C)c3n2)c1
- IC50 (second compound 0.1 µM): > 100 nM
- IC50 (second compound 0.316 µM): > 100 nM
- IC50 (second compound 1 µM): > 100 nM
- IC50 (second compound 3.16 µM): < 0.316 nM
- IC50 (second compound 10 µM): < 0.316 nM
- viability, T/C (second compound 0.1 µM, first compound 0.000316 µM): 94.4%
- viability, T/C (second compound 0.1 µM, first compound 0.001 µM): 93.9%
- viability, T/C (second compound 0.1 µM, first compound 0.00316 µM): 92.2%
- viability, T/C (second compound 0.1 µM, first compound 0.01 µM): 87.8%
- viability, T/C [1]: 82.5%
- viability, T/C [2]: 80.6%
- viability, T/C (second compound 0.316 µM, first compound 0.000316 µM): 90.1%
- viability, T/C (second compound 0.316 µM, first compound 0.001 µM): 98%
- viability, T/C (second compound 0.316 µM, first compound 0.00316 µM): 85.7%
- viability, T/C (second compound 0.316 µM, first compound 0.01 µM): 88%
- viability, T/C [3]: 85.6%
- viability, T/C [4]: 78.5%
- viability, T/C (second compound 1 µM, first compound 0.000316 µM): 86.7%
- viability, T/C (second compound 1 µM, first compound 0.001 µM): 81.6%
- viability, T/C (second compound 1 µM, first compound 0.00316 µM): 89.8%
- viability, T/C (second compound 1 µM, first compound 0.01 µM): 78.2%
- viability, T/C [5]: 78.8%
- viability, T/C [6]: 78.4%
- viability, T/C (second compound 3.16 µM, first compound 0.000316 µM): 17.9%
- viability, T/C (second compound 3.16 µM, first compound 0.001 µM): 23.4%
- viability, T/C (second compound 3.16 µM, first compound 0.00316 µM): 23.8%
- viability, T/C (second compound 3.16 µM, first compound 0.01 µM): 19.4%
- viability, T/C [7]: 25.5%
- viability, T/C [8]: 21.6%
- viability, T/C (second compound 10 µM, first compound 0.000316 µM): 2.6%
- viability, T/C (second compound 10 µM, first compound 0.001 µM): 2.33%
- viability, T/C (second compound 10 µM, first compound 0.00316 µM): 3.01%
- viability, T/C (second compound 10 µM, first compound 0.01 µM): 2.42%
- viability, T/C [9]: 2.36%
- viability, T/C [10]: 2.64%
